Here are results for four compounds from patent publication US20230049917A1, “Pharmaceutical Composition of CASR Modulators and Methods and Uses Thereof” (Lupin Limited, priority 2019, published 2023).

SMILES strings stand for the structures. Read-outs that look alike come from different tables or passages of the source.

The conditions of series [1]: cited from earlier work.
Series [2] in a line: Pharmacokinetic analysis after oral administration of the formulation to rats. Type of series: in vivo. Conditions: male, Sprague Dawley, rat, 5 mg/kg. As to the method:
Male Sprague Dawley Rats (weight 225±25 gm; aged 8 to 10 weeks) were administered orally with the formulation. Each of the tested compounds was dosed at 5 mg/kg at a dose volume of 1 mL/kg. Blood samples were collected at time points 0.25, 0.5, 1, 2, 4, 6, 8 and 24 hours and analyzed the plasma concentrations of administered compound and calculated PK parameters. The plasma concentrations of the tested compounds were measured by liquid chromatography with tandem mass spectrometry (LCMS-MS) using […] extraction method. The plasma concentration-time data was subjected to Non-Compartmental Analysis using Phoenix WinNonlin® (Version 5.3) software to assess the pharmacokinetic parameters. Peak plasma concentrations (Cmax) and time for the peak plasma concentrations (Tmax) were the observed values. The area under the concentration time curve (AUC) was calculated by linear trapezoidal rule.

Where [3] appears, read: CKD patients not on dialysis, week 32.

In the case of `C[C@@H](NCCCc1cccc(C(F)(F)F)c1)c1cccc2ccccc12` [Cinacalcet], in series [1] (setting [3]), the phosphorus levels was 4.5 ± 1.0 mg/dL and the “phosphorus levels, change” value was “+21.4%”. Besides, the “serum calcium levels, frequently observed” value in series [1] (patients with CKD not on dialysis) was less than 8.4 mg/dL.
The Cmax is the peak of the concentration-time curve. For orientation: Tmax means the time at which the peak concentration occurs. For `Cc1ccc(N2C[C@H](CCN[C@H](C)c3cccc4ccccc34)Oc3ccccc32)cc1C(=O)O.Cl` [Compound 2, 2-methyl-5-((S)-2-(2-(((R)-1-(naphthalen-1-yl)ethyl)amino)ethyl)-2H-benzo[b][1,4]oxazin-4(3H)-yl)benzoic acid], in series [2] (in vivo, po), the AUC(0-t) was 16 ± 3 µM·h, the peak level (Cmax) was 4.9 ± 3 µM and the Tmax came to 15 min.
Turning to `COc1cc([C@@H](C)NC[C@@H]2Cc3ccccc3[C@H](c3ccc(C)c(C(=O)O)c3C)C2)ccc1F.Cl` [Compound 4, 3-((1R,3S)-3-((((R)-1-(4-fluoro-3-methoxyphenyl)ethyl)amino)methyl)-1,2,3,4-tetrahydronaphthalen-1-yl)-2,6-dimethylbenzoic acid], in series [2] (in vivo, po), the AUC(0-t) came out at 5.5 ± 1 µM·h, the Cmax stood at 1.5 ± 1 µM and the Tmax lay within 30 to 120 min.
For the compound `C[C@@H](NC[C@H]1CN(c2cc(C(=O)O)cc(C(F)(F)F)c2)CCO1)c1cccc2ccccc12` [Compound 1, 3-((S)-2-((((R)-1-(naphthalen-1-yl)ethyl)amino)methyl)morpholino)-5-(trifluoromethyl)benzoic acid], in series [2] (oral, dose volume 1 mL/kg, plasma, sampling to 24 hours, read-out: AUC0-1), the AUC(0-t) stood at 7.3 ± 0.5 µM·h. In addition, in series [2] (oral, plasma, read-out: Cmax), the Cmax came to 3.6 ± 1 µM. Besides, the Tmax in series [2] (oral, plasma, read-out: Tmax) is 15 to 60 min.
